Values belong to the compound of their own block, whether it stands above or below them. The source made the active and inactive calls. The calls are words filed in the database; no cut-off is given here.
Key:
Homo sapiens [1] = species: Homo sapiens; assay: Induction of adipogenesis in human bone marrow-derived mesenchymal stem cells assessed as increase in adiponectin production measured on day 5 in presence of IDX by ELISA; format: functional
Homo sapiens [2] = species: Homo sapiens; assay: Induction of adipogenesis in human bone marrow-derived mesenchymal stem cells assessed as increase in lipid droplet accumulation at 30 uM measured on day 5 in presence of IDX by ORO staining based spectrophotometric analysis; format: functional
[3] = biological target: T1, Peroxisome proliferator-activated receptor gamma (Homo sapiens) (UniProt P37231); assay: Displacement of fluormone Pan-PPAR Green from human GST-tagged PPARgamma-LBD at 10 uM by TR-FRET assay relative to control
T1 sequence (whole entry): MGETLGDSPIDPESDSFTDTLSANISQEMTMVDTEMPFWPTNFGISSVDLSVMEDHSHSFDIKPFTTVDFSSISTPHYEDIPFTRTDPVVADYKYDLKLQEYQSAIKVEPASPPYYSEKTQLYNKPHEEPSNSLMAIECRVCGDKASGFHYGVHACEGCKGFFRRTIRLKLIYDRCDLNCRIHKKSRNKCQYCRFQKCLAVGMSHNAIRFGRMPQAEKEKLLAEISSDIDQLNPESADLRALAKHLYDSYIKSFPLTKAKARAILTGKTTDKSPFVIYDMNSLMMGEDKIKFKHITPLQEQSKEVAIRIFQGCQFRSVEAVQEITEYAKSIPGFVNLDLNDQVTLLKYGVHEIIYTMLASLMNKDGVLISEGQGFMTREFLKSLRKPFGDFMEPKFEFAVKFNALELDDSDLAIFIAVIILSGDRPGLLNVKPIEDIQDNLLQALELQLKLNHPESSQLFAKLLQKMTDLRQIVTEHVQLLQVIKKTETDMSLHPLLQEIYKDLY

[4] = biological target: T2, Peroxisome proliferator-activated receptor alpha (Homo sapiens) (UniProt Q07869); assay: Displacement of fluormone Pan-PPAR Green from human GST-tagged PPARalpha-LBD at 10 uM by TR-FRET assay
T2 sequence (whole entry): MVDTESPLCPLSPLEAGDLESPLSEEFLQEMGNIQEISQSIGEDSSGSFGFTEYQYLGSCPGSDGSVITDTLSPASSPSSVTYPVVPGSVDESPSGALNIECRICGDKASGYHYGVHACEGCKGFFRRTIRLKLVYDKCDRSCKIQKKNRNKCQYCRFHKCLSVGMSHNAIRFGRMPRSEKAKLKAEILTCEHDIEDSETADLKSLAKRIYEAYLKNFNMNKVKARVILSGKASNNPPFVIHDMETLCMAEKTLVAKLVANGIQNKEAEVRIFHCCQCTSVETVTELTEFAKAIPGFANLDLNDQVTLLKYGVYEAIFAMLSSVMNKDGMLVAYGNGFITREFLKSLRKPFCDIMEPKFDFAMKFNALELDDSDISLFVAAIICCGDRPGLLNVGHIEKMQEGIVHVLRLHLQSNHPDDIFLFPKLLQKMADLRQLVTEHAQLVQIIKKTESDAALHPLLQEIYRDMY

[5] = biological target: T3, Peroxisome proliferator-activated receptor delta (Homo sapiens) (UniProt Q03181); assay: Displacement of fluormone Pan-PPAR Green from human GST-tagged PPARdelta-LBD at 10 uM by TR-FRET assay
T3 sequence (whole entry): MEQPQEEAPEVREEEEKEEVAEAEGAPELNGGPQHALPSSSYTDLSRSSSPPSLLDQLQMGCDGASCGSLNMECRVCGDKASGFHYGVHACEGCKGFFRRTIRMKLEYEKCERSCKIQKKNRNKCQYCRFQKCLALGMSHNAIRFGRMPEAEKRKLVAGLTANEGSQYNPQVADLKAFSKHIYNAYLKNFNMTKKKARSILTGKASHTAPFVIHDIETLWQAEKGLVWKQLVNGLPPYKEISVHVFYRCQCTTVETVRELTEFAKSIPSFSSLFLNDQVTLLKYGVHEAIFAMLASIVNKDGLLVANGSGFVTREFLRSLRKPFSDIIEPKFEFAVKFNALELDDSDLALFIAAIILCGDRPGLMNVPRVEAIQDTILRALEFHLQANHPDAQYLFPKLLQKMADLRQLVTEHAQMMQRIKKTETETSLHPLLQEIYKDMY

[6] = biological target: T4, Glucocorticoid receptor (Homo sapiens) (UniProt P04150); assay: Displacement of fluormone GS1 from human GST-tagged glucocorticoid receptor-LBD at 10 uM by TR-FRET assay
T4 sequence (whole entry): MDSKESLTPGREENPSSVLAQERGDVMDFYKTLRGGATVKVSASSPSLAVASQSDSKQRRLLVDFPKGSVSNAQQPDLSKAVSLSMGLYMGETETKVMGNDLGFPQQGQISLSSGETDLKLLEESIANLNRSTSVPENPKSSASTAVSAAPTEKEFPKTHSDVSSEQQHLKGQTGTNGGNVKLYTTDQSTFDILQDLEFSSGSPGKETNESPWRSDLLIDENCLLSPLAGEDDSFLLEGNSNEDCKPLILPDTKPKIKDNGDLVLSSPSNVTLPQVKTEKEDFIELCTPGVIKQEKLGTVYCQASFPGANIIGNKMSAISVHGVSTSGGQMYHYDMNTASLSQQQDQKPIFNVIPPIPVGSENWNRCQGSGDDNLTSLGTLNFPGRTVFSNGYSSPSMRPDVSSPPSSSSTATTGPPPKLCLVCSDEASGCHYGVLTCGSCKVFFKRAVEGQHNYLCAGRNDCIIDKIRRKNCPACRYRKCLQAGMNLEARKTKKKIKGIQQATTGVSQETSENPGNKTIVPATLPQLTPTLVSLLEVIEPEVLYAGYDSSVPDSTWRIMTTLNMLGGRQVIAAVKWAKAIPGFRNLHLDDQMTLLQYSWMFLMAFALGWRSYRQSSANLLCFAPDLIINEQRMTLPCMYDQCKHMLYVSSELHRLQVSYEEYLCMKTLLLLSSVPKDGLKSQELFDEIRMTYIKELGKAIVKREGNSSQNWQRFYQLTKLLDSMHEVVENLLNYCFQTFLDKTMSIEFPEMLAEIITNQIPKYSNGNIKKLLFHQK

[7] = biological target: T5, Oxysterols receptor LXR-alpha (Homo sapiens) (UniProt Q13133); assay: Transactivation of recombinant human GST-tagged LXRalpha-LBD at 10 uM by TR-FRET assay
T5 sequence (whole entry): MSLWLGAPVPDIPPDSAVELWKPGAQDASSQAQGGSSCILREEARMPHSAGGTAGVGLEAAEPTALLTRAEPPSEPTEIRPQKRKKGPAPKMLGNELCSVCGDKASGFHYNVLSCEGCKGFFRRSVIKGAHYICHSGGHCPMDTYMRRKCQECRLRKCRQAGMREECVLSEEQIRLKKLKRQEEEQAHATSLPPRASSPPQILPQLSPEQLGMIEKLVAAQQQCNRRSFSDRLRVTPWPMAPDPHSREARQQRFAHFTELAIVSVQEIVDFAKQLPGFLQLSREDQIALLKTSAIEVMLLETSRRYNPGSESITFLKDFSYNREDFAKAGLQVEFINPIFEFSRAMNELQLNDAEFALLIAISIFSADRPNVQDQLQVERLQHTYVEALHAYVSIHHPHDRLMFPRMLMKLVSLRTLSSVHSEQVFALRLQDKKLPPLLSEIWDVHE

[8] = biological target: T6, Oxysterols receptor LXR-beta (Homo sapiens) (UniProt P55055); assay: Transactivation of LXRbeta (unknown origin) at 10 uM by TR-FRET assay
T6 sequence (whole entry): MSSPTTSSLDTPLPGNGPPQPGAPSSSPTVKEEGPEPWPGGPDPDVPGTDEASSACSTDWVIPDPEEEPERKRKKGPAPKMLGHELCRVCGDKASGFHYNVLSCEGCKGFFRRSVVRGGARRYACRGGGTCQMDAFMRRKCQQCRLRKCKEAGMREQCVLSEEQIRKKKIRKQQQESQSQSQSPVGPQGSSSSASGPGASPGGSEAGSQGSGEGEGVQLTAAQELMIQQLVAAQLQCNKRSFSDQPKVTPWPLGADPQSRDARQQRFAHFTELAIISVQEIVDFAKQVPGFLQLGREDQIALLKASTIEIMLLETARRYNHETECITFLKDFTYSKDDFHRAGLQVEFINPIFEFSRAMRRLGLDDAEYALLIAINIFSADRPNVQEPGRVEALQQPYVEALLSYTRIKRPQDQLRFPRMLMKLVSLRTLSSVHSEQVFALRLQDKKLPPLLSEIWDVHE

[9] = biological target: T7, Peroxisome proliferator-activated receptor gamma (Homo sapiens, UniProt P37231); assay: Displacement of fluormone Pan-PPAR Green from human GST-tagged PPARgamma-LBD by TR-FRET assay
T7 sequence (P37231 whole entry): T1 sequence (whole entry)

[10] = biological target: T1, Peroxisome proliferator-activated receptor gamma (Homo sapiens); assay: Partial agonist activity at PPARgamma in human bone marrow-derived mesenchymal stem cells assessed as inhibition of troglitazone-induced upregulation of PPARgamma mRNA level at 3 to 10 uM measured on day 3 in presence of IDX by qRT-PCR analysis
[11] = biological target: T1, Peroxisome proliferator-activated receptor gamma (Homo sapiens); assay: Partial agonist activity at PPARgamma in human bone marrow-derived mesenchymal stem cells assessed as inhibition of troglitazone-induced upregulation of adiponectin mRNA level at 3 to 10 uM measured on day 3 in presence of IDX by qRT-PCR analysis
[12] = biological target: T1, Peroxisome proliferator-activated receptor gamma (Homo sapiens); assay: Partial agonist activity at PPARgamma in human bone marrow-derived mesenchymal stem cells assessed as inhibition of troglitazone-induced upregulation of FABP4 mRNA level at 3 to 10 uM measured on day 3 in presence of IDX by qRT-PCR analysis
[13] = biological target: T1, Peroxisome proliferator-activated receptor gamma (Homo sapiens); assay: Partial agonist activity at PPARgamma in human bone marrow-derived mesenchymal stem cells assessed as inhibition of troglitazone-induced increase in adiponectin level at 3 to 10 uM measured on day 5 in presence of IDX by ELISA
Homo sapiens [14] = species: Homo sapiens; assay: Induction of adipogenesis in human bone marrow-derived mesenchymal stem cells assessed as increase in adiponectin production at 1 uM measured on day 5 in presence of IDX by ELISA; format: functional
Homo sapiens [15] = species: Homo sapiens; assay: Induction of adipogenesis in human bone marrow-derived mesenchymal stem cells assessed as increase in adiponectin production at 100 uM measured on day 5 in presence of IDX by ELISA; format: functional
Homo sapiens [16] = species: Homo sapiens; assay: Induction of adipogenesis in human bone marrow-derived mesenchymal stem cells assessed as increase in adiponectin production at 10 uM measured on day 5 in presence of IDX by ELISA; format: functional
Homo sapiens [17] = species: Homo sapiens; assay: Induction of adipogenesis in human bone marrow-derived mesenchymal stem cells assessed as increase in adiponectin production at 60 uM measured on day 5 in presence of IDX by ELISA; format: functional
[18] = biological target: T1, Peroxisome proliferator-activated receptor gamma (Homo sapiens); assay: Displacement of fluormone Pan-PPAR Green from human GST-tagged PPARgamma-LBD at 30 uM by TR-FRET assay relative to control
[19] = biological target: T2, Peroxisome proliferator-activated receptor alpha (Homo sapiens); assay: Displacement of fluormone Pan-PPAR Green from human GST-tagged PPARalpha-LBD at 30 uM by TR-FRET assay
[20] = biological target: T3, Peroxisome proliferator-activated receptor delta (Homo sapiens); assay: Displacement of fluormone Pan-PPAR Green from human GST-tagged PPARdelta-LBD at 30 uM by TR-FRET assay
[21] = biological target: T4, Glucocorticoid receptor (Homo sapiens); assay: Displacement of fluormone GS1 from human GST-tagged glucocorticoid receptor-LBD at 30 uM by TR-FRET assay
[22] = biological target: T5, Oxysterols receptor LXR-alpha (Homo sapiens); assay: Transactivation of recombinant human GST-tagged LXRalpha-LBD at 30 uM by TR-FRET assay
[23] = biological target: T6, Oxysterols receptor LXR-beta (Homo sapiens); assay: Transactivation of LXRbeta (unknown origin) at 30 uM by TR-FRET assay

Activity [3]: 58%
Activity [4]: inactive
Activity [5]: inactive
Activity [6]: inactive
Activity [7]: inactive
Activity [8]: inactive
Ki [9]: 7.1 µM
inhibition [10]: Active
inhibition [11]: Active
inhibition [12]: Active
inhibition [13]: Active
SMILES: O=CN1CCc2c([nH]c3ccccc23)C1c1cccc2cccnc12 (stereo not drawn)
Activity (Homo sapiens [1]): Dose-dependent effect
Activity (Homo sapiens [2]): Active

SMILES: Cc1c(C)c2c(c(C)c1O)CCC(C)(COc1ccc(CC3SC(=O)NC3=O)cc1)O2 (stereo not drawn)
Activity (Homo sapiens [14]): Active

SMILES: CC(=O)Oc1ccccc1C(=O)O
Activity (Homo sapiens [15]): Active

SMILES: COc1ccc(Cl)cc1C(=O)NCCc1ccc(S(=O)(=O)NC(=O)NC2CCCCC2)cc1
Activity (Homo sapiens [16]): Active

Activity [18]: 24 to 36%
Activity [19]: inactive
Activity [20]: inactive
Activity [21]: inactive
Activity [22]: inactive
Activity [23]: inactive
SMILES: c1cnc2c(C3NCCc4c3[nH]c3ccccc43)cccc2c1 (stereo not drawn)
Activity (Homo sapiens [17]): Active

Source: ChEMBL document CHEMBL4184241, “2-Formyl-komarovicine promotes adiponectin production in human mesenchymal stem cells through PPARγ partial agonism” (Bioorg Med Chem, 2018)
